In PubChem BioAssay (NCI):
Values joined by “and” are separate entries in the source; they are usually repeats but may differ in a detail not shown here. Equal entries are not always repeated.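 Tested at 5 concentrations; 48 h exposure; 96-well plates; endpoints linearly interpolated, else capped at highest concentration. GI50 marks 50% less growth. Definition used: TGI = concentration required for complete inhibition of growth.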 Where a SMILES comes first, the peptide text is derived from it. [ ]: non-standard residue; d: D form. The star is where a group is joined. ξ: configuration not given here. NMeF = CN[C@@H](Cc1ccccc1)C(=O)O; NMeV = CN[C@H](C(=O)O)C(C)C; ξNMeV = CNC(C(=O)O)C(C)C; Boc = CC(C)(C)OC(=O)*; OBn = c1ccc(CO*)cc1

How the values were obtained:
Test in all cases: growth of human tumour cells (NCI), 48 h
[1] = system: A498 renal
[2] = system: HCT-116 colon
[3] = system: HCT-15 colon
[4] = system: HOP-62 NSCLC
[5] = system: IGROV1 ovarian
[6] = system: LOX IMVI melanoma
[7] = system: MALME-3M melanoma
[8] = system: OVCAR-5 ovarian
[9] = system: RPMI-8226 leukemia
[10] = system: SF-295 CNS

SMILES | TGI [1] [µM] | TGI [2] [µM] | TGI [3] [µM] | TGI [4] | TGI [5] [µM] | TGI [6] [µM] | TGI [7] [µM] | TGI [8] [µM] | TGI [9] [µM] | TGI [10] [µM] | GI50 [1] [µM] | GI50 [2] [µM] | GI50 [3] [µM] | GI50 [4] [µM] | GI50 [5] [µM] | GI50 [6] [µM] | GI50 [7] [µM] | GI50 [8] [µM] | GI50 [9] [µM] | GI50 [10] [µM]
CNC(=O)CNC(=O)N(C[C@@H]1CCCN1C(=O)[C@H](CC(C)C)NC(=O)OC(C)(C)C)C(C)C | > 100 | > 100 | > 100 | > 100 µM | > 100 | > 100 | > 100 | > 100 | > 100 | > 100 |  |  |  |  |  |  |  |  |  | 
NC1=Nc2ccccc2Sc2cccc(F)c21 | > 100 | > 100 | > 100 | > 100 µM | > 100 | > 100 | > 100 | > 100 | > 100 | > 100 |  |  |  |  |  |  |  |  |  | 
CN(C)CCC[N+]1=Nc2cccc3cccc(c23)N1 | 92.6 | > 100 | > 100 | > 100 µM | > 100 | > 100 | > 100 | > 100 | 47.3 | > 100 |  |  |  |  |  |  |  |  |  | 
Cc1ccnc(Nc2[nH]c(C(=O)c3ccc(Cl)cc3)c(N)c2C(=S)Nc2ccccc2)c1 | 36.9 | 30 | 34.2 | 47.3 µM | 30.9 | 28.3 | 29.6 | 55.3 | 31.3 | 36.8 |  |  |  |  |  |  |  |  |  | 
COC(=O)c1c2c(cc3c1CC1(Cc4ccccc4C1)C3)CCC2 | > 100 | 84.4 | > 100 | > 100 µM | > 100 | 34 | 67.2 | > 100 | 45.8 | 61.7 |  |  |  |  |  |  |  |  |  | 
C=C1CCOC2(C(O)C(C)(O)CO)NC(=O)C1(O)NC2=O (stereo not given) | > 100 | > 100 | > 100 | > 100 µM | > 100 | > 100 | > 100 | > 100 | > 100 | > 100 |  |  |  |  |  |  |  |  |  | 
Cc1nc2ccc(NC3OCC(O)C(O)C3O)cc2c(=O)n1-c1ccccc1 (stereo not given) | > 100 | > 100 | > 100 | > 100 µM | > 100 | > 100 | > 100 | > 100 | > 100 | > 100 |  |  |  |  |  |  |  |  |  | 
C=CCOC(=O)Cn1ccc(=O)[nH]c1=O | > 100 | > 100 | > 100 | > 100 µM | > 100 | > 100 | > 100 | > 100 | > 100 | > 100 |  |  |  |  |  |  |  |  |  | 
CN(C)CC1CCC/C(=C\c2ccc(OC(=O)/C=C/c3ccc(Cl)cc3)cc2)C1=O (stereo not given) | 16.3 | 11 | 6.91 | 14.8 µM | 3.35 | 9.39 | 16.3 | 25.7 | 1.8 | 19.7 |  |  |  |  |  |  |  |  |  | 
CCCN(CCC)C(=O)c1c(N2CCN(C)CC2)c2cccnc2n2c(C)cnc12 | > 100 | > 100 | > 100 | > 100 µM | > 100 | > 100 | > 100 | > 100 | > 100 | > 100 |  |  |  |  |  |  |  |  |  | 
CC(=O)NC(C)(C)C1CCC(C)CC1 (stereo not given) | > 100 | > 100 | > 100 | > 100 µM | > 100 | > 100 | > 100 | > 100 | > 100 | > 100 |  |  |  |  |  |  |  |  |  | 
COc1ccc(N2C(=O)/C(=C/c3ccc(N(CCC#N)CCC#N)cc3)N=C2c2ccccc2)cc1 | > 100 | > 100 | > 100 | > 100 µM | > 100 | > 100 | > 100 | > 100 | > 100 | > 100 |  |  |  |  |  |  |  |  |  | 
COc1cc(O)c(Cc2ccccc2O)c(O)c1C(=O)CCc1ccccc1 | 14.4 | 13.7 | 19.9 | 9.89 µM | 29.8 | 22.9 | 15.8 | 21.8 | 9.8 | 16.1 |  |  |  |  |  |  |  |  |  | 
CC(C)C(C(=O)N(C)[C@H](C(=O)N1CCC[C@H]1C(=O)N(C)[C@@H](Cc1ccccc1)C(=O)OCc1ccccc1)C(C)C)N(C)C(=O)[C@@H](NC(=O)OC(C)(C)C)C(C)C (stereo not given in full) (Boc-V[ξNMeV][NMeV]P[NMeF]-OBn) | > 31.6 | > 31.6 | > 31.6 | > 31.6 µM | > 31.6 | > 31.6 | > 100 | > 31.6 | > 31.6 | > 31.6 |  |  |  |  |  |  |  |  |  | 
N#COc1ccc(Oc2ccc(OC#N)cc2)cc1 | > 100 | > 100 | > 100 | > 100 µM | > 100 | 33.9 | > 100 | > 100 | > 100 | > 100 |  |  |  |  |  |  |  |  |  | 
O=C1c2cccnc2-c2nccc3c2c1nc1ccccc13 | 1.03 | 0.18 | 0.202 | 0.514 µM | 1.33 | 0.207 | 0.603 | 1.65 | 1.17 | 0.194 |  |  |  |  |  |  |  |  |  | 
CCN(CC)CCC1CCCCN1CC(=O)N1c2cc(Cl)ccc2NC(=O)CC1C (stereo not given) | > 100 | > 100 | > 100 | > 100 µM | > 100 | > 100 | > 100 | > 100 | > 100 | > 100 |  |  |  |  |  |  |  |  |  | 

SMILES | TGI [1] [µM] | TGI [2] [µM] | TGI [3] [µM] | TGI [4] | TGI [5] [µM] | TGI [6] [µM] | TGI [7] [µM] | TGI [8] [µM] | TGI [9] [µM] | TGI [10] [µM] | GI50 [1] [µM] | GI50 [2] [µM] | GI50 [3] [µM] | GI50 [4] [µM] | GI50 [5] [µM] | GI50 [6] [µM] | GI50 [7] [µM] | GI50 [8] [µM] | GI50 [9] [µM] | GI50 [10] [µM]
O=c1/c(=C/c2ccccn2)sc2nc3cc4c(cc3n12)OCCO4 | > 100 | > 100 | > 100 | > 100 µM | > 100 | > 100 | > 100 | > 100 | > 100 | > 100 |  |  |  |  |  |  |  |  |  | 
COC(=O)c1c(O)ccc2c1c1c(n2Cc2cccc(C)c2)C(=O)c2ccccc2C1 | > 75 | 16.7 | > 75 | 51.6 µM | > 75 | 67.1 | 69.5 | > 75 | 31 | > 75 |  |  |  |  |  |  |  |  |  | 
COc1cccc(OC)c1NC(=O)C(=O)Nn1c(NNC(=O)c2ccncc2)nc2ccccc2c1=O | > 100 | > 100 | > 100 | > 100 µM | > 100 | > 100 | > 100 | > 100 | > 100 | > 100 |  |  |  |  |  |  |  |  |  | 
COc1ccc(-c2oc3cc(O)c(OC)c(O)c3c(=O)c2O)cc1 | 22.3 | > 66.6 | 52.2 | 25.7 µM | > 100 | > 78.6 | 88.2 | > 70.1 | 31.5 | 53.6 |  |  |  |  |  |  |  |  |  | 
COc1ccc2c(c1)/c(=C/C#N)c1c3ccccc3[n+](C)n21 | 13.9 | 12.5 | 59.8 | 29.6 µM | 31 | 28.6 | 14.3 | 42.8 | 8.03 | 42.1 |  |  |  |  |  |  |  |  |  | 
Cc1cc(O)c2c(c1)C(C1c3cccc(O)c3C(=O)c3c(O)cc(C)cc31)c1cccc(O)c1C2=O (stereo not given) | 4.53 | 18.9 | 12.3 | 3 µM | 4.56 | 11.4 | 1.25 | 11.8 | 0.8 | 4.31 |  |  |  |  |  |  |  |  |  | 
COc1ccc([I+]c2ccc(OC)cc2)cc1 | > 100 | > 100 | > 100 | > 73.2 µM and 92 µM | > 100 | > 100 | > 100 | > 100 | > 100 | > 100 | 5.52 | 2.83 | > 100 | 3.34 | 15.7 | 6.05 | 13.8 | > 60.8 | 4.16 | 5.07
O=c1[nH]c(=O)n(C2CC(O)C(CO)O2)cc1Br (stereo not given) | > 100 | > 100 | > 100 | > 100 µM | > 100 | > 100 | > 100 | > 100 | > 100 | > 100 |  |  |  |  |  |  |  |  |  | 
C/C(=N\NC(N)=S)c1nc2ncccc2[nH]1 | > 100 | > 100 | > 100 | > 100 µM | > 100 | > 100 | > 100 | > 100 | > 100 | > 100 |  |  |  |  |  |  |  |  |  | 
Fc1ccc(C(OCCN2CCC3CCC(C2)N3C/C=C/c2cccs2)c2ccc(F)cc2)cc1 (stereo not given) | 21 | 16.3 | 16.6 | 30.2 µM | 21.6 | 18.9 | 18.9 | 25.9 | 1.78 | 22.4 |  |  |  |  |  |  |  |  |  | 
NC(=S)N1N=C2c3ccccc3CCC[C@H]2[C@@H]1c1ccccc1 | 23.3 | 12.7 | 26.2 | 19.2 µM | 25 | 16.4 | 21.5 | 55.5 | 17.2 | 10.6 |  |  |  |  |  |  |  |  |  | 
COc1cc(/C=C/C(=N\NC(N)=S)c2sc(NNC(C)=O)nc2C)ccc1O | > 100 | > 100 | > 100 | > 100 µM | > 100 | > 100 | > 100 | > 100 | > 100 | > 100 |  |  |  |  |  |  |  |  |  | 
COc1ccc(-c2cc(-c3ccc(Nc4ccnc5cc(Cl)ccc45)cc3)[nH]c(=O)c2C#N)cc1 | > 100 | > 100 | > 100 | > 100 µM | > 100 | > 100 | > 100 | > 100 | > 100 | > 100 |  |  |  |  |  |  |  |  |  | 
COc1cc2c[n+](C)c3c4cc(OC)c(OCc5ccccc5)cc4c(OCc4ccccc4)cc3c2cc1OC | > 100 | 22 | > 100 | 39.3 µM | 13.2 | 18 | 10.7 | > 100 | > 86 | > 69.3 |  |  |  |  |  |  |  |  |  | 
COc1ccc(NC(=O)C(=O)Cc2ccc([N+](=O)[O-])c([N+](=O)[O-])c2CC(=O)C(=O)Nc2ccc(OC)cc2OC)c(OC)c1 | > 100 | > 100 | > 100 | > 100 µM | > 100 | > 100 | > 100 | > 100 | > 100 | > 100 |  |  |  |  |  |  |  |  |  | 
CCOC(=O)NN(C(=O)OCC)C(C(=O)c1ccccc1)N(NC(=O)OCC)C(=O)OCC | > 100 | > 100 | > 100 | > 100 µM | > 100 | > 100 | > 100 | > 100 | > 100 | > 100 |  |  |  |  |  |  |  |  |  | 
